Results on four molecules are retold here after patent US9458113B2 (Boehringer Ingelheim International GmbH, priority 2014, dated 2016).

Data set [1] addresses Human neutrophil elastase (Homo sapiens (Human), UniProt P08246). Description: Human Neutrophil Elastase Assay. It is filed as biochemical. The following applies: substrate MeOSuc-Ala-Ala-Pro-Val-AMC 250 μM, pH 7.5.
Experimental: The following buffers were used: Compound buffer: 100 mM Tris, 500 mM NaCl, adjusted to pH 7.5; Assay buffer: 100 mM Tris, 500 mM NaCl, adjusted to pH 7.5, containing 0.01% BSA.
Assay conditions: Test compounds were prediluted in DMSO and subsequently in compound buffer (5% DMSO final). […] After inactivation of the enzyme, fluorescence intensities were measured at 380 nm excitation and 460 nm emission wavelengths.
Each plate contains wells with a high value control (DMSO+enzyme+substrate) and wells with a low value control (DMSO+inactivated enzyme+substrate). IC50 values were estimated using a sigmoidal concentration response curve with variable slope. Means of low values were taken as 0%, means of high values as 100%.
For data set [2], the target named is neutrophil elastase in zymosan-stimulated human plasma (Homo sapiens (Human), UniProt P08246). In words: Neutrophil elastase inhibitory activity in human plasma. It is filed as biochemical. The following applies: human plasma from zymosan-stimulated blood.
Sequence of neutrophil elastase in zymosan-stimulated human plasma (P08246 30-247): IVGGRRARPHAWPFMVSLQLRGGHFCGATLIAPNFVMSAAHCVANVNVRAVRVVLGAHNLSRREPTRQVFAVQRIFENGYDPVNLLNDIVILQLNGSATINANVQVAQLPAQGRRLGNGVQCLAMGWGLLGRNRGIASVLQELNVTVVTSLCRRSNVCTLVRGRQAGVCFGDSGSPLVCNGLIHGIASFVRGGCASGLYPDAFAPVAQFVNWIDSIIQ
Experimental: Assay for the Determination of Neutrophil Elastase Inhibitory Activity in Human Plasma
Citrated blood from human healthy donors is mixed with zymosan suspension and incubated at room temperature. This leads to the stimulation of neutrophils and the release of neutrophil elastase into the plasma. The stimulated blood is centrifuged to generate the neutrophil elastase enriched plasma.
Various concentrations of the neutrophil elastase inhibitor are incubated with plasma. […] A dose response curve is generated to calculate the EC50 of the inhibitor.
Data set [3] is described as follows: Metabolic stability with human liver microsomes. It is filed as in vitro ADME. The following applies: pH 7.6; pooled human liver microsomes, 1 μM test compound, 37° C.; read-out: t1/2 INVITRO. Background: Liver microsomes are vesicles of endoplasmic reticulum, rich in cytochrome P450 enzymes.
Data set [4] in a line: Aqueous solubility (High Throughput Method). It is filed as physicochemical. The following applies: McIlvaine buffer pH 6.8 with 2.5% DMSO, kinetic from dmso stock, McIlvaine buffer pH 6.8, 2.5% DMSO, 24 h shaking. The method, then: Assay for Determination of Aqueous Solubility (“High Throughput Method”)
Starting from a […] DMSO stock solution, aliquots are diluted with acetonitrile/water (1/1) and McIlvaine buffer pH 6.8, respectively. After 24 h of shaking, the solutions or suspensions are filtered and analyzed by LC-UV. The amount dissolved in buffer is compared to the amount dissolved in the acetonitrile/water (1/1) solution. Solubility is measured from 0.001 to 0.125 mg/ml at a DMSO concentration of 2.5%. If more than 90% of the compound is dissolved in buffer, the value is marked with “>”.

The nature of data set [5]: Aqueous solubility (Shaked Flask Method). Type of data set: physicochemical. The following applies: aqueous buffer, thermodynamic from solid, pH 6.8. The method, then: Assay for Determination of Aqueous Solubility (“Shaked Flask Method”)
Saturated solutions are prepared in well plates by adding an appropriate volume of selected aqueous media (typically in the range of 0.25-1.5 ml) into each well which contains a known quantity of solid drug substance (typically in the range 0.5-5.0 mg). The wells are shaken or stirred for a predefined time period (typically in a range of 2-24 h) and then filtered using appropriate filter membranes (typically PTFE-filters with 0.45 μm pore size). Filter absorption is avoided by discarding the first few drops of filtrate. The amount of dissolved drug substance is determined by UV spectroscopy or by HPLC with UV-detection. In addition, the pH of the aqueous saturated solution is measured using a glass-electrode pH meter.

The next data set relates to human hepatocytes. Description: Metabolic stability with human hepatocytes. It is filed as in vitro ADME. The following applies: 1 μM test compound, well stirred model. The procedure:
Assay for the Determination of Metabolic Stability with Human Hepatocytes
The metabolic degradation of the test compound is assayed in a human hepatocyte suspension. Human hepatocytes (typically cryopreserved) are incubated in an appropriate buffer system (e.g. Dulbecco's modified eagle medium plus 3.5 μg glucagon/500 mL, 2.5 mg insulin/500 mL and 3.75 mg/500 mL hydrocortison) containing 5% species serum. Following a (typically) […] preincubation in an incubator (37° C., 10% CO2), 5 μl of test compound solution (80 μM; from […] stock solution in DMSO diluted 1:25 with medium) are added into 395 μl hepatocyte suspension (cell density in the range 0.25-5*10^6 cells/mL, typically 1*10^6 cells/mL; final concentration of test compound 1 μM, final DMSO concentration 0.05%). The cells are incubated for six hours (incubator, orbital shaker) and samples (25 μl) are taken at 0, 0.5, 1, 2, 4 and 6 hours. Samples are transferred into acetonitrile and pelleted by centrifugation (5 min) The supernatant is transferred to a new 96-deepwell plate, evaporated under nitrogen and resuspended. The decline of parent compound is analyzed by LC-MS/MS.
The intrinsic clearance CL_[…] is calculated as follows: CL_[…]=Dose/AUC=(C0/CD)/(AUD+clast/k)*1,000/60
(C0: initial concentration in the incubation [μM], CD: cell density of vital cells [10^6 cells/mL], AUD: area under the data [μM*h], clast: concentration of last data point [μM], k: slope of the regression line for parent decline [h^−1])
The calculated in vitro hepatic intrinsic clearance Qh can be scaled up to the intrinsic in vivo hepatic clearance and used to predict hepatic in vivo blood clearance (CL) by the use of a liver model (well stirred model): CL_[…]_INVIVO [ml/min/kg]=(CL_[…] [μL/min/10^6 cells]*hepatocellularity [10^6 cells/g liver]*liver factor [g/kg bodyweight])/1,000 CL [ml/min/kg]=CL_[…]_INVIVO [ml/min/kg]*hepatic blood flow [ml/min/kg]/(CL_[…]_INVIVO [ml/min/kg]+hepatic blood flow [ml/min/kg]) Qh [%]=CL [ml/min/kg]/hepatic blood flow [ml/min/kg])
(Hepatocellularity, human: 120*10^6 cells/g liver; liver factor, human: 25.7 g/kg bodyweight; blood flow, human: 21 ml/(min*kg))
The calculated in-vitro hepatic intrinsic clearance values of selected compounds in the metabolic stability assay with human hepatocytes described above are listed in Table 15.

Data set [6] in a line: Drug transport across human Caco-2 cells. The following applies: apparent permeability coefficient, Caco-2 monolayers, pH 7.2, 37° C.; for Papp A→B at 10 µM: apical-to-basal (absorptive), read-out: PEAB; for Papp B→A at 10 µM: basal-to-apical (secretory), read-out: PEBA. Type of data set: in vitro ADME. The source says:
Assay for Determination of Drug Transport Across Human Caco-2 Cells
The assay provides information on the potential of a compound to pass the cell membrane, on the extent of oral absorption as well as on whether the compound is actively transported by uptake and/or efflux transporters. For the measurement of permeability across polarized, confluent human cancer colon carcinoma cells 2 (Caco-2) cell monolayers grown on permeable filter supports are used as the in vitro absorption model.
Apparent permeability coefficients (PE) of the compounds across the Caco-2 monolayers are measured (pH 7.2, 37° C.) in apical-to-basal (AB) (absorptive) and basal-to-apical (BA) (secretory) transport direction. AB permeability (PEAB) represents drug absorption from the intestine into the blood and BA permeability (PEBA) drug secretion from the blood back into the intestine via both passive permeability as well as active transport mechanisms mediated by efflux and uptake transporters that are expressed on the Caco-2 cells. The compounds are assigned to permeability/absorption classes by comparison of the AB permeabilities with the AB permeabilities of reference compounds with known in vitro permeability and oral absorption in the human. Identical or similar permeabilities in both transport directions indicate passive permeation, vectorial permeability points to additional active transport mechanisms. […] Active transport is concentration-dependently saturable.
Caco-2 cells (1-2*10^5 cells/cm^2 area) are seeded on filter inserts (Costar transwell polycarbonate or PET filters, 0.4 μm pore size) and cultured (DMEM) for 10 to 25 days. Compounds are dissolved in appropriate solvent (like DMSO, […] stock solutions). Stock solutions are diluted with HTP-4 buffer (128.13 mM NaCl, 5.36 mM KCl, 1 mM MgSO4, 1.8 mM CaCl2, 4.17 mM NaHCO3, 1.19 mM Na2HPO4x7H2O, 0.41 mM NaH2PO4xH2O, 15 mM HEPES, 20 mM glucose, pH 7.2) to prepare the transport solutions (typically 10 μM compound, final DMSO<=0.5%). The transport solution (TL) is applied to the apical or basolateral donor side for measuring A-B or B-A permeability (3 filter replicates), respectively. The receiver side contains HTP-4 buffer supplemented with 2% BSA. Samples are collected at the start and end of experiment from the donor and at various time intervals for up to 2 hours also from the receiver side for concentration measurement by LC-MS/MS or scintillation counting. Sampled receiver volumes are replaced with fresh receiver solution.
The apparent permeability coefficients (PEAB and PEBA) of selected compounds in the Caco-2 drug transport assay described above are listed in Table 16.

In brackets after ≈: the same amount, converted by molar mass.

Sequence of Human neutrophil elastase (P08246 30-247): as above

For the molecule `CN1C(=O)N(c2cccc(C(F)(F)F)c2)C2=C(C(=O)CCC2)[C@H]1c1ccc(C#N)cc1-c1ccn(C)c(=O)c1` [Example 20.b, 4-[3-Methyl-2,5-dioxo-1-(3-trifluoromethyl-phenyl)-1,2,3,4,5,6,7,8-octahydro-quinazolin-4-yl]-3-(1-methyl-2-oxo-1,2-dihydro-pyridin-4-yl)-benzonitrile], in data set [1], the concentration for half-maximal inhibition (IC50) (commonly the point on the concentration scale where inhibition reaches its midpoint) was under 1 nM. Further, a half-maximal effect in data set [2] (EC50) was put at 1 nM. Also, the half-life at 1 μM in data set [3] was over 2.17 h. For the same molecule, in data set [4], the concentration in solution (solubility at 24 h) came to 72 µg/mL (≈ 135 µM). Moreover, the solubility (usually how much of the substance goes into solution per volume) in data set [5] was over 10 µg/mL.

`CN1C(=O)N(c2cccc(C(F)(F)F)c2)C2=C(C(=O)CC2)C1c1ccc(C#N)cc1-c1cncnc1` (stereo not shown) [Example 21] had an IC50 in data set [1] of 1.3 nM. Also, the EC50 (as a rule, the midpoint of the concentration-response curve) in data set [2] was determined as 2 nM. In data set [3], the half-life at 1 μM is over 2.17 h. The molecule further came in with a Qh with human hepatocytes of 23%. Also, in data set [6], the Papp A→B at 10 µM amounted to 52 ×10⁻⁶ cm/s and the Papp B→A at 10 µM is 67 ×10⁻⁶ cm/s. Also, in data set [4], the solubility at 24 h turned out to be 50 µg/mL (≈ 102 µM). Moreover, the solubility in data set [5] was over 10 µg/mL.

Molecule `CN1C(=O)N(c2cccc(C(F)(F)F)c2)C2=C(C(=O)CC2)C1c1ccc(C#N)cc1-c1ccncn1` (stereo not shown) [Example 22, 4-[3-Methyl-2,5-dioxo-1-(3-trifluoromethyl-phenyl)-2,3,4,5,6,7-hexahydro-1H-cyclopentapyrimidin-4-yl]-3-pyrimidin-4-yl-benzonitrile] came in with an IC50 in data set [1] of 3.8 nM. This molecule also had an EC50 in data set [2] of 6 nM. In addition, the half-life at 1 μM in data set [3] was over 2.17 h. In addition, the Qh in the data set with human hepatocytes amounted to 12%. Moreover, in data set [6], the Papp A→B at 10 µM came out at 52 ×10⁻⁶ cm/s and the Papp B→A at 10 µM turned out to be 77 ×10⁻⁶ cm/s. This molecule also returned a solubility at 24 h in data set [4] of 83 µg/mL (≈ 170 µM). In data set [5], the solubility is over 10 µg/mL.

With `CN1C(=O)N(c2cccc(C(F)(F)F)c2)C2=C(C(=O)CC2)[C@H]1c1ccc(C#N)cc1CNC1CCOCC1` [Example 25, 4-[(R)-3-Methyl-2,5-dioxo-1-(3-trifluoromethyl-phenyl)-2,3,4,5,6,7-hexahydro-1H-cyclopentapyrimidin-4-yl]-3-[(tetrahydro-pyran-4-ylamino)-methyl]-benzonitrile], the IC50 in data set [1] amounted to 1.9 nM. This molecule came in with an EC50 in data set [2] of 7 nM. In data set [3], the half-life at 1 μM is over 2.17 h. For the same molecule, the Qh in the data set with human hepatocytes is listed as 20%. Besides, in data set [6], the Papp A→B at 10 µM came out at 16 ×10⁻⁶ cm/s and the Papp B→A at 10 µM is 96 ×10⁻⁶ cm/s. Moreover, the solubility in data set [5] is over 10 µg/mL.
